Data on three molecules can be found in article PMC4191062, “Development of αGlcN(1↔1)αMan-Based Lipid A Mimetics as a Novel Class of Potent Toll-like Receptor 4 Agonists” (Journal of Medicinal Chemistry, 2014).

Entries after “also recorded” stand apart in the source; their conditions may differ.

The test system of one assay is THP-1 cells. Briefly: Cytokine expression (TNF-α, IL-8, MCP-1; ELISA) in TPA-differentiated THP-1 macrophage-like cells. Type of assay: cell-based, human. The following applies: for activation of the MyD88 signaling pathway compared to Re-LPS/LPS: THP-1; for potency in induction of expression of IL-8 compared to Re-LPS/LPS / potency in induction of expression of TNF-α compared to Re-LPS/LPS: dose-dependent. On the procedure:
Lipid A mimetics 1–3 were examined for the ability to initiate the expression of tumor necrosis factor-α (TNF-α), interleukin-8 (IL-8), and monocyte chemotactic protein-1 (MCP-1) in the human monocytic macrophage-like cell line THP-1, which expresses MD-2, CD14, and a variety of cell surface receptors, including TLR4.
THP-1 cells were grown in RPMI-1640 cell-culture medium (Life Technologies) that was supplemented with 2 mM L-glutamine, 100 U/mL penicillin, 100 μg/mL streptomycin, and 10% FCS. Cells were seeded in a 96-well plate at 10^5 cells/well in 150 μL of complete medium and stimulated by 200 nM TPA for 24 h to induce the differentiation into macrophage-like cells.[59] […] Cells were stimulated with α,α-GM-LAMs 1–3 at the indicated concentration and with E. coliRe-LPS (or E. coli O111:B4 LPS), which were added as solutions in 10 μL of complete medium. The total volume of the well after stimulation reached 220 μL. The cells were incubated for 18 h, and the supernatants were analyzed for TNF-α, IL-8, and MCP-1 by ELISA (BD Biosciences).
Supplementary SI-Figure 2
E. coli wild type O111:B4 LPS is a large heterogeneous molecule with molecular weight (MW) comprising 10-15 kDa. Since we were particularly interested in the molecular recognition mechanisms implicated in the binding of LPS by the MD-2∙TLR4 complex wherein the Lipid A/Re-LPS (MW 1.8/2.2 kDa, respectively) portion of LPS is mostly involved, we have analyzed the dose-dependent THP-1 cells activation by synthetic α,α-GM-LAM 1-3 (at the concentrations 0.1 – 300 ng/ml) compared to E. coli Re-LPS which is more appropriate in this instance. Since the divergences in the expression of different cytokines by E. coli LPS vs. Re-LPS are only scarcely reported in the literature, we have performed dose-dependent activation experiments comparing expression of TNF-α, IL-8 and MCP-1 by E. coli O111:B4 LPS and E. coli Re-LPS at the concentrations 0.4 – 100 nM. Wild-type LPS (MW 10 […]
range (0.4 – 10 nM), whereas at the concentrations above 10 nM (50 nM for MCP-1) the levels of cytokines […]
This might be explained by a different aggregation state of Re-LPS and wild type LPS, and, therefore, the alterations in the transfer of a single LPS molecule to TLR4∙MD-2 complex by LBP and CD-14. Higher MW (> 10 kDa) of the LPS molecule applied for the calculations of the concentrations in [nM] would result in the shift of the activation profile induced by wild-type LPS. Calculation of EC50 values were hardly possible, since the maximum TLR4 saturation levels were not achieved at the concentrations tested.
SI-Figure 2. Dose-dependent expression of pro-inflammatory cytokines TNF-α, IL-8 and MCP-1 in human macrophage cell line THP-1 by E. coli Re-LPS compared to E. coli wild-type O111:B4 LPS. (A) Comparative expression of TNF-a; (B) comparative expression of IL-8; (C) comparative expression of MCP-1 […]
(1 picture or pasted object on this page, not shown here)
Supplementary SI-Figure 3
Dose-dependent responses (THP-1 cells: α,α-GM-LAM 1-3 and Re-LPS) at the concentration range 0.4 – 100 ng/ml which are presented in the Figure 5, were extended to the higher concentration range (up to 300 ng/ml).
SI-Figure 3. Dose-dependent expression of cytokines induced by α,α-GM-LAM 1-3 in macrophage cell line THP-1 compared to E. coli Re-LPS at the concentration range 0.4 – 300 ng/ml. (A) Production of TNF-α; (B) Induction of […]
Supplementary SI-Figure 4
Lipid A mimetic 1 was examined for the activation of NF-κB (Nuclear factor kappaB) and IRF3
(Interferon regulatory factor 3). IRF3 activation […]
noticeable after 1h stimulation, though was
LPS. At 1h stimulation the α,α-GM-LAM 1 was […]
whereas at 3h simulation compound 1 (at a […]
stronger phosphorylation of IκBa (P-IκBa levels) as well as the higher levels of IκBa (reflecting the NF-κB dependent re-synthesis of IκB following its
Thus, IRF3 activation and NF-κB activation […]
degradation and its NF-κB dependent resynthesis) […]
compared to LPS after 3h stimulation. […]
(In general: An ELISA detects its analyte on a solid surface through an enzyme-linked reagent.)

Assay [1] has as its system human dendritic cells. Briefly: Cytokine production in human monocyte-derived dendritic cells (Luminex). Type of assay: cell-based. The following applies: hDCs, 24 h. On the procedure:
Activated DCs were examined for the production of pro-inflammatory cytokines TNF-α, IL-6, and IL-12, which contribute to the modulation of the T cell response and innate effector functions.[57] The release of TNF-α and IL-6 reached nearly maximum levels (attained with 10 ng/mL LPS) at the α,α-GM-LAM 1 concentration of 1 ng/mL (Figure 7A).
Human peripheral blood monocytes were cultured for 6 days in GM-CSF and IL-4 to receive immature monocyte-derived DCs and were then stimulated with the indicated concentrations of 1 and 3 using 10 ng/mL LPS as positive control (solutions in PRMI containing 10% FCS and 0.005–0.01% DMSO). The amounts of IL-6, IL-12, IL-10, and TNF-α in the supernatants of the cells were analyzed after 24 h by Luminex. Results are representative of three independent experiments for 1 and of two experiments for 3. Mean values of duplicate examinations ± SD are presented.

In assay [2] the test system is human dendritic cells. Briefly: Maturation marker expression in human dendritic cells (flow cytometry). Type of assay: cell-based. The following applies: hDCs, 24 h; LPS 10 ng/ml. The source says:
To test the impact of selected α,α-GM-LAMs 1 and 3 on maturation of human dendritic cells (hDCs), immature monocyte-derived hDCs were stimulated with 1 and 3 in a wide concentration range or with E. coli LPS as positive control. DCs are able to persistently sense pathogen-associated molecular patterns and present antigens to T lymphocytes, thereby initiating an adaptive immune response.[7]
None of the α,α-GM-LAMs exerted cytotoxic effects on DCs, as determined by propidium iodide staining (data not shown). […]
stimulatory molecules CD86 as well as the antigen presenting structures MHC class I and MHC class II, which are necessary for the induction of an adaptive immune response (SI-Figure 5). […]
up-regulation of the inhibitory B7-H1 (CD272) and Sialoadhesin (CD169), which is known to be indirectly up-regulated in DCs due to release of type-I interferons. […]
stimulator not only of the NF-κB- but also of the IRF-pathway. Stimulation of DCs with the monophosphoryl α,α- […]
SI-Figure 5. Bisphosphoryl α,α-GM-LAM 1 and monophosphoryl α,α-GM-LAM 3 induce the expression of maturation markers in human DCs. […] The cells were then harvested and the surface expression level of the indicated markers was measured by flow cytometry. […]
A general note: Flow cytometry measures light scatter and fluorescence of single cells or particles in a stream.

For `CCCCCCCCCCCCCC(=O)O[C@H](CCCCCCCCCCC)CC(=O)O[C@@H]1[C@@H](NC(=O)C[C@@H](CCCCCCCCCCC)OC(=O)CCCCCCCCCCC)[C@@H](O[C@H]2O[C@H](COP(=O)(O)O)[C@@H](OC(=O)C[C@@H](CCCCCCCCCCC)OC(=O)CCCCCCCCC)[C@H](O)[C@@H]2OC)O[C@H](CO)[C@H]1OP(=O)(O)O` [Compound 2, 4-O-[(R)-3-(Decanoyloxy)tetradecanoyl]-2-O-methyl-6-O-phosphoryl-α-mannopyranosyl-(1↔1)-2-deoxy-2-[(R)-3-(dodecanoyloxy)tetradecanoylamino]-4-O-phosphoryl-3-O-[(R)-3-(tetradecanoyloxy)tetradecanoyl]-α-D-glucopyranoside], the “activation of the MyD88 signaling pathway compared to Re-LPS/LPS” value in the assay on THP-1 cells is recorded as “more potent activators”. In the assay with THP-1 cells (THP-1, 18 h), the “release of MCP-1 compared to Re-LPS and compound 1” value is “clearly more effective”; the “potency in induction of expression of IL-8 compared to Re-LPS/LPS” value was “higher potency”; the “potency in induction of expression of TNF-α compared to Re-LPS/LPS” value was “higher potency”.
Turning to `CCCCCCCCCCCCCC(=O)O[C@H](CCCCCCCCCCC)CC(=O)O[C@@H]1[C@@H](NC(=O)C[C@@H](CCCCCCCCCCC)OC(=O)CCCCCCCCCCC)[C@@H](O[C@H]2O[C@H](CO)[C@@H](OC(=O)C[C@@H](CCCCCCCCCCC)OC(=O)CCCCCCCCCCC)[C@H](O)[C@@H]2OC)O[C@H](CO)[C@H]1OP(=O)(O)O` [Compound 3, 4-O-[(R)-3-(Dodecanoyloxy)tetradecanoyl]-2-O-methyl-α-D-mannopyranosyl-(1↔1)-2-deoxy-2-[(R)-3-(dodecanoyloxy)tetradecanoylamino]-4-O-phosphoryl-3-O-[(R)-3-(tetradecanoyloxy)tetradecanoyl]-α-D-glucopyranoside], the “induction of the expression of cytokines” value in the assay with THP-1 cells (THP-1, TNF-α, IL-8, MCP-1) is recorded as “dampened induction”. Also, in the assay with human dendritic cells [1], the “release of TNF-α, IL-6, and IL-10 compared to 1” value was “less efficient”. Further, in the assay on human dendritic cells [2], the “DCs maturation and up-regulation of CD86, MHC class I and MHC class II compared to LPS” value is listed as “less pronounced activation marker profile”.
Regarding `CCCCCCCCCCCCCC(=O)O[C@H](CCCCCCCCCCC)CC(=O)O[C@@H]1[C@@H](NC(=O)C[C@@H](CCCCCCCCCCC)OC(=O)CCCCCCCCCCC)[C@@H](O[C@H]2O[C@H](COP(=O)(O)O)[C@@H](OC(=O)C[C@@H](CCCCCCCCCCC)OC(=O)CCCCCCCCCCC)[C@H](O)[C@@H]2OC)O[C@H](CO)[C@H]1OP(=O)(O)O` [Compound 1, 4-O-[(R)-3-(Dodecanoyloxy)tetradecanoyl]-2-O-methyl-6-O-phosphoryl-α-D-mannopyranosyl-(1↔1)-2-deoxy-2-[(R)-3-(dodecanoyloxy)tetradecanoylamino]-4-O-phosphoryl-3-O-[(R)-3-(tetradecanoyloxy)tetradecanoyl]-α-D-glucopyranoside], the “activation of the MyD88 signaling pathway compared to Re-LPS/LPS” value in the assay with THP-1 cells is “more potent activators”. For the same molecule, in the assay on THP-1 cells (THP-1, 18 h), the “potency in induction of expression of IL-8 compared to Re-LPS/LPS” value is “higher potency” and the “potency in induction of expression of TNF-α compared to Re-LPS/LPS” value is given as “higher potency”. Moreover, in the assay with human dendritic cells [1], the “concentration at which release of TNF-α and IL-6 reached nearly maximum levels (attained with 10 ng/mL LPS)” value was determined as 1 ng/mL; the “expression of IL-12” value was “efficiently induced”. Further, the “DCs maturation and up-regulation of CD86, MHC class I and MHC class II compared to LPS” value in the assay on human dendritic cells [2] is “as potent as by LPS; also recorded: as potent as that with LPS”.
